# Experiments:
# cyclooxygenase-2 (COX-2) = target: T1, cyclooxygenase-2 (COX-2) (Homo sapiens, UniProt P35354); assay: Inhibition of COX-2 enzyme activity; type: biochemical; conditions: at a concentration of 10 μmol/L; read-out: inhibitory rate, COX-2
# T1 sequence (P35354 18-604): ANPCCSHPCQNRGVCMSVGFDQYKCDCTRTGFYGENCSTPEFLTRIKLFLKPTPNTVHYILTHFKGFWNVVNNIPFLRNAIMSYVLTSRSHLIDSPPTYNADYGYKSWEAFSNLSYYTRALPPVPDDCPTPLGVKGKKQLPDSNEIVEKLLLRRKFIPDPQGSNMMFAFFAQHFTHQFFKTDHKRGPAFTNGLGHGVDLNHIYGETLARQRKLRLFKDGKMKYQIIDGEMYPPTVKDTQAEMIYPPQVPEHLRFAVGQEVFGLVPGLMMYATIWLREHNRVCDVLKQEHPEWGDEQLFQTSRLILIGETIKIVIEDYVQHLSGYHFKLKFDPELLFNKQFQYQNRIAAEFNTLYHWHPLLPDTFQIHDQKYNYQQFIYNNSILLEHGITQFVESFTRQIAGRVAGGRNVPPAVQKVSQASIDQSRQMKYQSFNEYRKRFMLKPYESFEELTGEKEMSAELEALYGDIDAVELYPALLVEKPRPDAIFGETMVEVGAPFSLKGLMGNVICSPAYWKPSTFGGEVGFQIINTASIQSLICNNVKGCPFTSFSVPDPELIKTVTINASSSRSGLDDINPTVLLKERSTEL
# mdx mice = assay: Myodegeneration in spontaneous muscular dystrophy model (mdx) mice; type: in vivo, mouse; conditions: in drinking water, about 30 mg/kg
# Method: mdx Mice (C57BL/10ScSn-Dmd^mdx) were purchased in male and female pairs from Jackson Laboratories, and bred in-house for use. After weaned at 3 weeks old, male mdx mice were selected, which were subjected to the test from 4 weeks old. Compound 133 was dissolved in MEYLON 84 (registered trademark, 8.4% sodium bicarbonate injection, Otsuka) to prepare 12 mL of a 3 mg/mL solution thereof. This was added to and mixed with 188 mL of sterile tap water (final concentration of the compound: 180 μg/mL), and the mixture was administered by unrestricted intake (actual dose of the compound was about 30 mg/kg). […]
# As evaluation of the diaphragm muscle, the degenerated and/or necrotic muscle area ratio of the diaphragm was determined. […] The thus prepared specimen was digitally shot at 20-fold magnification using a digital microscope (VHX-1000, KEYENCE, Osaka) and the images were recorded in TIFF format. Using the nature that degenerated and/or necrotic muscle absorbs EB and turns blue (J. Anat., 2002, 200, 69-79), the area of the diaphragm piece and the area of blue region showing the distribution of degenerated and/or necrotic muscle were determined with an image analyzer (LUZEX AP, Nireco, Tokyo). […]
# For evaluation of the posterior crural muscle, the degenerated and/or necrotic muscle area ratio of the gastrocnemius muscle was determined. […]
structure (smiles),measurement,setting,value
"O=C(O)c1cc(-c2ccco2)nc2ccc3nn(-c4ccccc4)nc3c12 [Compound 133, 7-(furan-2-yl)-2-phenyl-2H-[1,2,3]triazolo[4,5-f]quinoline-9-carboxylic acid]",inhibition at 10 µM,cyclooxygenase-2 (COX-2),≤ 20%
same,inhibition of degeneration and/or necrosis of the diaphragm,mdx mice,40%
same,inhibition of degeneration and/or necrosis of the gastrocnemius muscle,mdx mice,49%

# From patent US20120196854A1, “PHARMACEUTICAL COMPOSITION COMPRISING AROMATIC HETEROCYCLIC COMPOUND” (Kyowa Hakko Kirin Co., Ltd., priority 2009, published 2012)
